From patent US9890185B2, “Urea derivatives useful as kinase inhibitors” (Respivert Limited, priority 2013, dated 2018) come the findings set out here.

What is called IC50 is the point on the concentration scale where inhibition reaches its midpoint. Usually inhibition stands for the percentage by which the read-out fell short of the control.

In experiment [1] the test system is PBMCs. Briefly: LPS-induced IL-8 release in PBMC cells (assay b). Format: cell-based, human. Particulars: Homo sapiens, PBMC; LPS-stimulated PBMCs; read-out: IC50 Values for Inhibition of Cytokine Release, PBMCs IL-8. In outline: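 Cytokines (TNFα, IL-8) in supernatants were quantified by sandwich ELISA after a 24 h challenge with 1 ng/mL E. coli LPS at 37° C, 5% CO2. Healthy-donor PBMCs had been exposed to compound for 2 h beforehand. IC50 values were fitted from the concentration-response curves.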

In the next experiment the target is c-Src (Homo sapiens (Human), UniProt P12931). Briefly: c-Src enzyme inhibition (FRET, Z-LYTE). It is filed as biochemical. The gist of the method:
(§1)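 Each kinase is exposed to test compound for 2 hr at RT before substrate and ATP (pre-mix levels: c-Src 800 μM, Syk 60 μM) start a 1 hr reaction. A 1 hr protease step removes signal from non-phosphorylated peptide; inhibition against uninhibited control yields IC50.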

Experiment [2] deals with PBMCs. Briefly: IL-2 release in CD3/CD28 stimulated PBMC cells (assay c). It is filed as cell-based. The settings on record: Homo sapiens, read-out: IC50 Values for Inhibition of Cytokine Release, PBMCs IL-2. On the procedure: (§2) PBMCs from healthy subjects are separated from whole blood using a density gradient (Lymphoprep, Axis-Shield Healthcare). Cells are added to a 96 well plate pre-coated with a mixture of CD3/CD28 monoclonal antibodies (0.3 μg/mL eBioscience and 3 μg/mL BD Pharmingen respectively). Compound at the desired concentration is then added to the wells and the plate left for 3 days under normal tissue culture conditions. Supernatants are harvested and IL-2 and IFN gamma release determined by Sandwich ELISA (Duo-set, R&D System). The IC50 is determined from the dose response curve.

The target of the next experiment is GSK 3α (Homo sapiens (Human), UniProt P49840). Briefly: GSK 3α enzyme inhibition (FRET, Z-LYTE, Method 2). Format: biochemical. Particulars: read-out: IC50 Values for Enzyme Inhibition, GSK3α. In outline:
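Human GSK3α (500 ng/mL) preincubated with compound (4, 0.4, 0.04 or 0.004 μg/mL) at RT for 2 h (Method 1) or 105 min (Method 2). Then FRET peptide (8 μM) and ATP (40 μM) added for 1 h, followed by protease development for 1 h. IC50 from the coumarin/fluorescein emission ratio relative to uninhibited control.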

For the next experiment, the target named is Syk (Homo sapiens (Human), UniProt P43405). Kind of experiment: Syk enzyme inhibition (FRET, Z-LYTE). Format: biochemical. The gist of the method:
as §1

Experiment [3] concerns PBMCs. Kind of experiment: IFN gamma release in CD3/CD28 stimulated PBMC cells (assay c). The settings on record: Homo sapiens, read-out: IC50 Values for Inhibition of Cytokine Release, PBMCs IFNγ. Format: cell-based. On the procedure: as §2
The target of experiment [4] is p38 MAPKα isoform (MAPK14) (Homo sapiens (Human), UniProt Q16539). Kind of experiment: p38 MAPKα enzyme inhibition (FRET, Z-LYTE, Method 2). Format: biochemical. As for the experimental part: The enzyme inhibitory activities of compounds disclosed herein are determined by FRET using synthetic peptides labelled with both donor and acceptor fluorophores (Z-LYTE, Invitrogen Ltd., Paisley, UK).
p38 MAPKα isoform (MAPK14), sequence (Q16539 whole entry, canonical isoform): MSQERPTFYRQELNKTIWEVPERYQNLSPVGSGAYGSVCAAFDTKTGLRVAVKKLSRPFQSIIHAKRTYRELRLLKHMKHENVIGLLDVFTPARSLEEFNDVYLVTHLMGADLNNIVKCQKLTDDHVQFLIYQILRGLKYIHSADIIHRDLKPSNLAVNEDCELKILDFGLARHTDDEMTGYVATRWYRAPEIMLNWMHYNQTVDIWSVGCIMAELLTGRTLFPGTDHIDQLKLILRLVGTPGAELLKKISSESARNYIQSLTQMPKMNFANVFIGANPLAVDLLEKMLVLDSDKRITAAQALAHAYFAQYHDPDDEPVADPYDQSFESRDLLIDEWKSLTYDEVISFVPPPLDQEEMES
The following two assay variants can be used for determination of p38 MAPKα inhibition.
The inhibitory activities of test compounds against the p38 MAPKα isoform (MAPK14: Invitrogen), are evaluated indirectly by determining the level of activation/phosphorylation of the down-stream molecule, MAPKAP-K2. The p38 MAPKα protein (80 ng/mL, 2.5 μL) is mixed with the test compound (2.5 μL of either 4 μg/mL, 0.4 μg/mL, 0.04 μg/mL or 0.004 μg/mL) for 2 hr at RT. […] The mixture is incubated for 1 hr at RT. Development reagent (protease, 5 μL) is added for 1 hr prior to detection in a fluorescence microplate reader (Varioskan® Flash, ThermoFisher Scientific).
This method follows the same steps as Method 1 above, but utilises a higher concentration of the p38 MAPKα protein (2.5 μL of 200 ng/mL protein instead of 2.5 μL of 80 ng/mL protein) for mixing with the test compound.
In all cases, the site-specific protease cleaves non-phosphorylated peptide only and eliminates the FRET signal. Phosphorylation levels of each reaction are calculated using the ratio of coumarin emission (donor) over fluorescein emission (acceptor), for which high ratios indicate high phosphorylation and low ratios indicate low phosphorylation levels. The percentage inhibition of each reaction is calculated relative to non-inhibited control and the 50% inhibitory concentration (IC50 value) is then calculated from the concentration-response curve.

Experiment [5] relates to PBMCs. Kind of experiment: Cell mitosis assay in PBMCs (assay g). Format: cell-based. The settings on record: Homo sapiens, PBMC, test compound 5 μg/mL. On the procedure:
Peripheral blood mononucleocytes (PBMCs) from healthy subjects are separated from whole blood (Quintiles, London, UK) using a density gradient (Histopaque®-1077, Sigma-Aldrich, Poole, UK). The PBMCs (3 million cells per sample) are subsequently treated with 2% PHA (phytohaemagglutinin, Sigma-Aldrich, Poole, UK) for 48 hr, followed by a 20 hr exposure to varying concentrations of test compounds. At 2 hr before collection, PBMCs are treated with demecolcine (0.1 μg/mL; Invitrogen, Paisley, UK) to arrest cells in metaphase. To observe mitotic cells, PBMCs are permeabilised and fixed by adding Intraprep (50 μL; Beckman Coulter, France), and stained with anti-phospho-histone 3 (0.26 ng/L; #9701; Cell Signalling, Danvers, Mass.) and propidium iodide (1 mg/mL; Sigma-Aldrich, Poole, UK) as previously described (Muehlbauer P. A. and Schuler M. J., Mutation Research, 2003, 537:117-130). Fluorescence is observed using an ATTUNE flow cytometer (Invitrogen, Paisley, UK), gating for lymphocytes. The percentage inhibition of mitosis is calculated for each treatment relative to vehicle (0.5% DMSO) treatment.

A further experiment relates to d-U937 cells. Briefly: Accumulation of β catenin in d-U937 cells (assay m). Format: cell-based, human. The settings on record: percentage relative to Reference Compound at 1 μg/mL. The gist of the method:
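Read-out: colourimetric cell-based immunoassay for endogenous β-catenin (OD450 minus 655 reference), normalised to crystal violet absorbance at 595 nm. Test compound or vehicle was applied for 18 hr to U937 monocytes first differentiated with PMA (100 ng/mL) for 48–72 hr.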

c-Src, sequence (P12931 whole entry, looked up): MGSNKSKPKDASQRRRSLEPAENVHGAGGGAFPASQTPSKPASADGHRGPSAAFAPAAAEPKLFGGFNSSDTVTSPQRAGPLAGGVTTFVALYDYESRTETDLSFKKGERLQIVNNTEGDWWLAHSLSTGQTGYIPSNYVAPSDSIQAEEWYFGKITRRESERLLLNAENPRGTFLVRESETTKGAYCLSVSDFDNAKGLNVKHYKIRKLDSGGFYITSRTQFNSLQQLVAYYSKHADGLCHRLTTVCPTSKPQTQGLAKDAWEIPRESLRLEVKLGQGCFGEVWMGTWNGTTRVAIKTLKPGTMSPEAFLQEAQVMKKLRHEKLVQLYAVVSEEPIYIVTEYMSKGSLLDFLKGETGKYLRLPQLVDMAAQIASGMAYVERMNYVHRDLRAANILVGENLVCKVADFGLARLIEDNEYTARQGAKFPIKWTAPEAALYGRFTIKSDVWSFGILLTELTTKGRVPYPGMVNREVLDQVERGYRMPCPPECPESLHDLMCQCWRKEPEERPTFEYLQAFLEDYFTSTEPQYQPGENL
GSK 3α, sequence (P49840 whole entry): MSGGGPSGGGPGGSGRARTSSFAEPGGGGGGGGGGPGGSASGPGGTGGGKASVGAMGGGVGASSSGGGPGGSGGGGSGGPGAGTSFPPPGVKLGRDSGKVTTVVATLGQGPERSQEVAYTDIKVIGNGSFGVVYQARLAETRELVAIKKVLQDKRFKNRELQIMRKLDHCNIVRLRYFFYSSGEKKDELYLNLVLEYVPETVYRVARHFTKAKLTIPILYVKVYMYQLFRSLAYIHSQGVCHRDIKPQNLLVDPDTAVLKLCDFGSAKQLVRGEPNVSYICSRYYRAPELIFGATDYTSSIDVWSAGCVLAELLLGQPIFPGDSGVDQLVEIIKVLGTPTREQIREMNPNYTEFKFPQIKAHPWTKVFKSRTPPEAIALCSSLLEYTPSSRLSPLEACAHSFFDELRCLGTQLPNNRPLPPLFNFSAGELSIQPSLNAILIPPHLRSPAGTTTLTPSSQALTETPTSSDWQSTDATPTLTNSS

For `COCCOCCOCCOc1cc(Nc2nccc(Oc3ccc(NC(=O)Nc4cc(C(C)(C)C)cc(P(C)(C)=O)c4OC)c4ccccc34)n2)cc(OC)c1` [Example 1, 1-(5-(tert-Butyl)-3-(dimethylphosphoryl)-2-methoxyphenyl)-3-(4-((2-((3-methoxy-5-(2-(2-(2-methoxyethoxy)ethoxy)ethoxy)phenyl)amino)pyrimidin-4-yl)oxy)naphthalen-1-yl)urea], the IC50 in the experiment with PBMCs [1] was found to be 1.1 nM; on c-Src, 9 nM; in the experiment with PBMCs [2] it was 61.2 nM; on GSK 3α, 330 nM; against Syk, 30 nM; with PBMCs [3], 3.8 nM. Further, half-maximal inhibition in experiment [4] (IC50) required 34 nM.

`COc1cccc(Nc2cc(Oc3ccc(NC(=O)Nc4cc(C(C)(C)C)cc(CC(N)=O)c4OC)c(Cl)c3Cl)ccn2)c1` [38(af), 2-(5-(tert-Butyl)-3-(3-(2,3-dichloro-4-((2-((3-methoxyphenyl)amino)pyridin-4-yl)oxy)phenyl)ureido)-2-methoxyphenyl)acetamide]: the IC50 in the experiment with PBMCs [1] turned out to be 2.6 nM; against c-Src, 44 nM; in the experiment with PBMCs [2] it was 63.3 nM; on GSK 3α, 1010 nM; on Syk it was 249 nM; in the experiment on PBMCs [3], 4.5 nM. In the experiment with PBMCs [5], this compound yielded an inhibition at 5 µg/mL of 89.3%.

As to `COc1c(CC(N)=O)cc(C(C)(C)C)cc1NC(=O)Nc1ccc(Oc2ccnc(Nc3cccc(OC(F)F)c3)c2)c2ccccc12` [38(s), 2-(5-(tert-Butyl)-3-(3-(4-((2-((3-(difluoromethoxy)phenyl)amino)pyridin-4-yl)oxy)naphthalen-1-yl)ureido)-2-methoxyphenyl)acetamide], the IC50 in the experiment on PBMCs [1] is 5.3 nM; at c-Src, 363 nM; in the experiment on PBMCs [2], 190 nM; on GSK 3α, more than 15300 nM; on Syk, more than 1520 nM; in the experiment on PBMCs [3], 26.7 nM.

For the compound `COc1cc(Nc2cc(Oc3ccc(NC(=O)Nc4cc(C(C)(C)C)cc(P(C)(C)=O)c4OC)c4ccccc34)ccn2)ccc1C(=O)NCCN1CCOCC1` [38(ao), 4-((4-((4-(3-(5-(tert-Butyl)-3-(dimethylphosphoryl)-2-methoxyphenyl)ureido)naphthalen-1-yl)oxy)pyridin-2-yl)amino)-2-methoxy-N-(2-morpholinoethyl)benzamide], the half-inhibitory concentration (IC50) amounted to 2.7 nM in the experiment with PBMCs [1], 219 nM in the experiment on PBMCs [2], 3270 nM on GSK 3α and 15.7 nM in the experiment on PBMCs [3]. This compound displayed an inhibition at 5 µg/mL in the experiment with PBMCs [5] of 78%.

Turning to `COc1cc(Nc2cc(Oc3ccc(NC(=O)Nc4cc(C(C)(C)C)cc(CNC(C)=O)c4OC)c4ccccc34)ccn2)cc(C(=O)NCCN2CCOCC2)c1` [38(t), 3-((4-((4-(3-(3-(Acetamidomethyl)-5-(tert-butyl)-2-methoxyphenyl)ureido)naphthalen-1-yl)oxy)pyridin-2-yl)amino)-5-methoxy-N-(2-morpholinoethyl)benzamide], the IC50 was 0.7 nM with PBMCs [1], 288 nM with PBMCs [2], 839 nM at GSK 3α and 7.4 nM in the experiment with PBMCs [3]. This compound came in with an inhibition at 5 µg/mL in the experiment with PBMCs [5] of 77.3%.

As to `COc1cc(Nc2cc(Oc3ccc(NC(=O)Nc4cc(C(C)(C)C)cc(S(C)(=O)=O)c4OC)c4ccccc34)ccn2)ccc1C(=O)O` [Example 80, 4-((4-((4-(3-(5-(tert-Butyl)-2-methoxy-3-(methylsulfonyl)phenyl)ureido)naphthalen-1-yl)oxy)pyridin-2-yl)amino)-2-methoxybenzoic acid], the concentration for half-maximal inhibition (IC50) amounted to 4.5 nM in the experiment with PBMCs [1], 415 nM with PBMCs [2] and 6.6 nM with PBMCs [3].

As to `COc1cc(Nc2cc(Oc3ccc(NC(=O)Nc4cc(C(C)(C)C)cc(CP(C)(C)=O)c4OC)c4ccccc34)ccn2)cc(C(=O)NCCN2CCOCC2)c1` [38(v), 3-((4-((4-(3-(5-(tert-Butyl)-3-((dimethylphosphoryl)methyl)-2-methoxyphenyl)ureido)-naphthalen-1-yl)oxy)pyridin-2-yl)amino)-5-methoxy-N-(2-morpholinoethyl)benzamide], the half-inhibitory concentration (IC50) is 1.7 nM in the experiment on PBMCs [1], 84.5 nM in the experiment with PBMCs [2], 1150 nM on GSK 3α and 8.1 nM with PBMCs [3].

Consider `COc1cc(Nc2nccc(Oc3ccc(NC(=O)Nc4cc(C(C)(C)C)cc(P(C)(C)=O)c4OC)c4ccccc34)n2)cc(OC)c1` [Example 18, 1-(5-(tert-Butyl)-3-(dimethylphosphoryl)-2-methoxyphenyl)-3-(4-((2-((3,5-dimethoxyphenyl)-amino)pyrimidin-4-yl)oxy)naphthalen-1-yl)urea], for which the IC50 with PBMCs [1] stood at 2.1 nM; against c-Src, 15 nM; in the experiment with PBMCs [2], 19.4 nM; on GSK 3α, 1310 nM; against Syk, 69 nM; with PBMCs [3] it was 8.2 nM. Further, the concentration for half-maximal inhibition (IC50) in experiment [4] was 218 nM. The entries for the “% β-catenin induction” value with d-U937 cells (test compound 1 μg/mL), with d-U937 cells (test compound 5 μg/mL) and in the experiment with d-U937 cells (test compound 10 μg/mL) were 6.5%, 35.5% and 39.0%, respectively.

Turning to `COc1c(NC(=O)Nc2ccc(Oc3ccnc(Nc4ccccc4)c3)c3ccccc23)cc(C(C)(C)C)cc1OCP(C)(C)=O` [15(e), 1-(5-(tert-butyl)-3-((dimethylphosphoryl)methoxy)-2-methoxyphenyl)-3-(4-((2-(phenylamino)pyridin-4-yl)oxy)naphthalen-1-yl)urea], the IC50 stood at 4.7 nM with PBMCs [1]; 120 nM on c-Src; 25.6 nM in the experiment on PBMCs [2]; 2890 nM at GSK 3α; 551 nM against Syk; 60.4 nM in the experiment with PBMCs [3]. The compound further came in with an IC50 in experiment [4] of 360 nM. Further, the “% β-catenin induction” value came out at 2.0% in the experiment with d-U937 cells (test compound 1 μg/mL), 20.5% in the experiment with d-U937 cells (test compound 5 μg/mL) and 32.5% with d-U937 cells (test compound 10 μg/mL).

As for `COc1cc(Nc2cc(Oc3ccc(NC(=O)Nc4cc(C(C)(C)C)cc(CC(N)=O)c4OC)c4ccccc34)ccn2)cc(S(N)(=O)=O)c1` [38(ai), 2-(5-(tert-Butyl)-2-methoxy-3-(3-(4-((2-((3-methoxy-5-sulfamoylphenyl)amino)pyridin-4-yl)oxy)naphthalen-1-yl)ureido)phenyl)acetamide], the concentration for half-maximal inhibition (IC50) in the experiment with PBMCs [1] was determined as 1.6 nM; with PBMCs [2], 91.7 nM; on GSK 3α it was 885 nM; in the experiment on PBMCs [3], 11.1 nM. Moreover, in the experiment on PBMCs [5], at 5 µg/mL the inhibition was 67.6%.
